How the values were obtained:
Myc-CaP tumors = test: Myc-CaP syngeneic murine prostate model in FVB mice; type: in vivo, mouse
Experimental: MYC-driven murine prostate cancer cells (Myc-CaP) were injected at a density of 1×10^6 subcutaneously into both flanks of 4- to 6-week old FVB mice (Charles River Laboratories) in serum-free medium with 50% Matrigel. When tumors reached ˜50 mm^3, tumor-bearing mice were randomized and treated with 15 mg/kg or 30 mg/kg ESK981 or vehicle (ORA-PLUS) by oral gavage 5 days per week. For the ESK981 and anti-PD-1 combination study, 15 mg/kg ESK981 or vehicle were given 5 days per week by oral gavage, while anti-PD-1 (Cat No. BE0146, BioXcell) or isotype control (Cat No. BE0089, BioXcell) were given at 200 μg per mouse 3 times per week by intraperitoneal injection (i.p.). For the ESK981 and anti-CXCR3 combination study, 15 mg/kg ESK981 or vehicle were given 5 days per week by oral gavage, while anti-CXCR3 (Cat No. BE0249, BioXcell) or isotype control (Cat No. BE0091, BioXcell) were given at 100 μg per mouse 3 times per week by i.p. For the shPikfyve study, Myc-CaP shPikfyve cells were injected at a density of 2×10^6 subcutaneously into both flanks of 4- to 6-week old NSG or FVB mice in serum-free medium with 50% Matrigel. When tumors reached 100 mm^3, tumor-bearing mice were randomized and treated with normal diet or doxycycline 625 mg/kg diet (Envigo). For the shPikfyve and anti-PD-1 combination study, Myc-CaP shPikfyve cells were injected at a density of 2×10^6 subcutaneously into both flanks of 4- to 6-week old FVB mice in serum-free medium with 50% Matrigel. When tumors reached 100 mm^3, tumor-bearing mice were randomized and treated with normal diet or doxycycline 625 mg/kg diet for 7 days, and then anti-PD-1 or isotype control were given at 200 μg per mouse 3 times per week in combination with normal or doxycycline diet.

[1] = test system: DU145 prostate cancer cells; test: cell viability screen with a 167-compound tyrosine kinase inhibitor library; type: cell-based, human
Experimental: FIG. 1: ESK981 inhibits the growth of diverse preclinical models of prostate cancer and is associated with a unique vacuolization morphology. • (a) The percentage viabilities of DU145 cells treated with 300 nM ESK981 or 167 other tyrosine kinase inhibitors when compared to a vehicle control. The top five most inhibitory compounds, as well as cabozantinib and crizotinib (highlighted in orange), and their respective targets are listed in the table. ESK981 is highlighted in red. • (b) Morphological differences of nuclear-restricted RFP-expressing DU145 cells treated with 300 nM ESK981, crizotinib, or cabozantinib. • (c) A long-term survival assay was used to calculate the half-maximum inhibitory concentration (IC50) after two weeks of incubation with the serial dilutions of indicated drugs. (Top) Long-term survival assays of VCaP prostate cancer cells exposed to MTKIs. (Bottom) IC50 of ESK981, crizotinib, and cabozantinib in a panel of prostate cancer cell lines. • (d) ESK981 was effective against enzalutamide (Enza)-resistant cell lines. […] Long-term survival (two weeks) was assayed by absorbance of crystal violet at OD590. • (e) VCaP-RFP cells were cultured for three days in ultralow attachment plates to form 3D tumor spheroids prior to the indicated drug treatments. […] Fluorescence intensity of 3D spheroids was measured by IncuCyte ZOOM. • (f) Castration-resistant VCaP tumors were established subcutaneously in castrated SCID mice, and mice were randomized into three groups, which received vehicle, 30 mg/kg, or 60 mg/kg ESK981 by oral gavage once per day for the indicated dosing schedule. Tumor volumes were monitored by a digital caliper twice per week. Data were analyzed by unpaired t test and presented as mean±SEM. *p<0.05; **p<0.01. • (g) AR^+ prostate patient-derived xenograft (PDX) MDA-PCa-146-12 were implanted subcutaneously in non-castrated SCID mice, and mice were randomized into two groups receiving either once daily vehicle or 30 mg/kg ESK981 for five days each week. […] Tumor volumes were monitored twice per week. […]

[2] = 15 mg/kg solo treatment, four weeks

CC(C)Cn1c2ccc(Nc3ncccn3)cc2c2c3c(c4c(c21)CCc1nn(C)cc1-4)C(=O)NC3 [ESK981, 13-isobutyl-4-methyl-10-(pyrimidin-2-ylamino)-1,2,4,7,8,13-hexahydro-6H-indazolo[5,4-a]pyrrolo[3,4-c]carbazol-6-one]
effect of co-treatment on the anti-PD-1 tumor inhibitory effect (Myc-CaP tumors; 15 mg/kg ESK981 with anti-PD-1, 6 weeks): strongly enhanced | Cd3 mRNA in tumors (Myc-CaP tumors; [2]): upregulated | Cxcl10 mRNA in tumors (Myc-CaP tumors; [2]): upregulated | Cd3 mRNA levels in tumors (Myc-CaP tumors; 15 mg/kg, 30 mg/kg): dose-dependent upregulation | tumor doubling time (progression-free survival) (Myc-CaP tumors; 15 mg/kg, 30 mg/kg): significantly increased tumor doubling time | average Cxcl10 levels in tumors (Myc-CaP tumors; 15 mg/kg, 30 mg/kg, dose-dependent): significantly increased | tumor growth (Myc-CaP tumors; 15 mg/kg, 30 mg/kg, oral gavage 5 days per week, three weeks): dose-dependent growth inhibition | LC3 lipidation in tumors (Myc-CaP tumors; 15 mg/kg, five days of treatment): elevated LC3 lipidation | bioluminescent-negative tumors (Myc-CaP tumors; 30 mg/kg group, day 19): five out of ten | CD3+ T cell trafficking in the tumor microenvironment (Cd3 RNA ISH) (Myc-CaP tumors; single agents): increased | growth inhibition (cell viability) ([1]; 300 nM): potent growth inhibition | cytoplasmic vacuolization morphology ([1]; among the 167 compounds tested): uniquely triggered a cytoplasmic vacuolization morphology

From patent US20230364084A1, “METHODS FOR PREVENTING OR TREATING CONDITIONS RELATED TO PIKFYVE ACTIVITY” (The Regents of the University of Michigan, priority 2020, published 2023)
